Where two headings read alike, the source gives them in different places.
Legend:
L1210 leukemia = assay: In vivo antitumor test, L1210 leukemia implanted i.p. in DBA mice; details: for SURVIVAL: lifespan post tumor cell inoculation; for % ILS: vs untreated controls
Procedure: L1210 leukemia (10^6) cells were implanted intraperitoneally in DBA mice (Taconic Farms, Germantown, N.Y.) on day 0. Treatment with each drug was carried out daily for 5 days. The drugs were administered intraperitoneally at the doses shown on Table II below. Each treatment group had six animals and the experiment was carried out twice. The percent increase-in-lifespan (% ILS) is for the treated subjects compared with the untreated controls.
^a Drugs were administered i.p. daily on days 1-5.
^b Lifespan of the animals post tumor cell innoculation.

[1] = system: EMT-6 mouse mammary tumor cells; assay: In vitro cytotoxicity screen (colony formation); format: cell-based; details: 1 hour drug exposure at 37° C., EMT-6 colony formation
Procedure: Cell Line and Culture. The cell line used in the screen was EMT-6 mouse mammary tumor cells in culture that were maintained in exponential growth in Waymouth's medium (I.S.I. Corp., Chicago, Ill.), supplemented with 15% newborn calf serum, penicillin (100 units/ml), and streptomycin (100 μg/ml) (Grand Island Biological Co., Grand Island, N.Y.). The doubling time of these cultures, growing at 37° C. in a 5% CO2 /95% air atmosphere, was 16-19 hours. In vitro plating efficiencies of control cultures were 65-80%.
Production of Hypoxia. To produce hypoxia, plastic flasks, containing exponentially growing monolayers of tumor cells in complete medium plus serum, were fitted with sterile rubber septums and exposed to a continuously flowing 95% N2 /5% CO2 humidified atmosphere for 4 hours at 37° C. as described by B. A. Teicher et al., Int. J. Radiat. Oncol. Biol. Phy., 11:937-940 (1985); and B. A. Teicher et al., Cancer Res., 41:73-81 (1981). Parallel flasks were maintained in 95% air/5% CO2. At the end of 4 hours, the drug specified in Table I below was added to the flasks by injection through the rubber septum without disturbing the hypoxia. […]
Drug Treatments. Exponentially growing cells were exposed to varying concentrations of the drugs specified in Table I below for 1 hour at 37° C. Non-drug-treated controls were handled identically. Drugs were prepared in sterile phosphate-buffered saline immediately before use and added to the cells in a small volume (50-100 μl). […] After treatment, the medium was removed, and the cultures were washed twice with phosphate buffered saline and suspended by trypsinization.
Cell Viability Measurements. Cell viability was measured by the ability of single cells to form colonies in vitro, as described by B. A. Teicher et al., Int. J. Radiat. Oncol. Biol. Phys., 11:937-940 (1985); and B. A. Teicher et al., Cancer Res., 41:73-81 (1981). Following treatment, suspensions of known cell numbers were plated in plastic Petri dishes and allowed to grow in a 37° C. incubator under standard culture conditions for 8-10 days. After this time interval, macroscopic colonies were stained with crystal violet in methanol containing 3.7% formaldehyde and were counted manually. Each experiment was repeated 3 times and each data point per experiment represents the results of 3 different dilutions of cells plated in triplicate.

[2] = 1.00 mg/kg i.p. daily on days 1-5
[3] = 2.50 mg/kg i.p. daily on days 1-5
[4] = 5.00 mg/kg i.p. daily on days 1-5
[5] = 10.00 mg/kg i.p. daily on days 1-5
[6] = Mus musculus, EMT6, 1 h, Hypoxia, read-out: IC50
[7] = Mus musculus, EMT6, 1 h, Normal oxygenation, read-out: IC50
[8] = Mus musculus, EMT6, Normal oxygenation, read-out: IC90
[9] = Mus musculus, EMT6, 1 h, Hypoxia
[10] = Mus musculus, EMT6, 1 h, Normal oxygenation
[11] = 0.50 mg/kg i.p. daily on days 1-5
[12] = 1.25 mg/kg i.p. daily on days 1-5
[13] = 1.50 mg/kg i.p. daily on days 1-5
[14] = 2.00 mg/kg i.p. daily on days 1-5

SMILES: O=C1C=C(N2CCCC2)C(N2CCCC2)=CC1=O [4,5-Pyrrolidinyl-1,2-Benzoquinone, 4,5-pyrrolidinyl-1,2-benzoquinone]
- SURVIVAL (L1210 leukemia; [2]): 8.0 days
- % ILS (L1210 leukemia; [2]): 8%
- SURVIVAL (L1210 leukemia; [3]): 8.0 days
- % ILS (L1210 leukemia; [3]): 8%
- SURVIVAL (L1210 leukemia; [4]): 7.6 days
- % ILS (L1210 leukemia; [4]): 3%
- SURVIVAL (L1210 leukemia; [5]): 6.3 days
- % ILS (L1210 leukemia; [5]): toxic
- IC90 ([1]; Hypoxia, read-out: IC90): > 500 µM
- IC50 [1, 6]: > 500 µM
- IC50 [1, 7]: > 500 µM
- IC90 [1, 8]: > 500 µM

SMILES: CCOC(=O)NC1=C(N2CC2)C(=O)C(NC(=O)OCC)=C(N2CC2)C1=O [AZQ, 3,6-bis(ethylcarboxyamino)-2,5-diaziridinyl-1,4-benzoquinone, reference compound]
- IC50 [1, 6]: 7.5 µM
- IC90 ([1]; Mus musculus, EMT6, 1 h, Hypoxia, read-out: IC90): 17.5 µM
- IC50 [1, 7]: 5 µM
- IC90 ([1]; Mus musculus, EMT6, 1 h, Normal oxygenation, read-out: IC90): 15.5 µM

SMILES: O=C1C=C(N2CCC2)C(N2CCC2)=CC1=O [4,5-Azetidinyl-1,2-Benzoquinone, 4,5-azetidinyl-1,2-benzoquinone]
- SURVIVAL (L1210 leukemia; [2]): 8.0 days
- % ILS (L1210 leukemia; [2]): 8%
- SURVIVAL (L1210 leukemia; [3]): 7.8 days
- % ILS (L1210 leukemia; [3]): 5%
- SURVIVAL (L1210 leukemia; [4]): 7.8 days
- % ILS (L1210 leukemia; [4]): 5%
- SURVIVAL (L1210 leukemia; [5]): 6.4 days
- % ILS (L1210 leukemia; [5]): toxic
- IC90 ([1]; Hypoxia, read-out: IC90): > 500 µM
- IC50 [1, 6]: 400 µM
- IC50 [1, 7]: 500 µM
- IC90 [1, 8]: > 500 µM

SMILES: COC1=CC(=O)C(=O)C=C1NCCCl [4-chloroethylamino-5-methoxy-1,2-benzoquinone]
- IC50 [1, 9]: 110 µM
- IC90 [1, 9]: 190 µM
- IC50 [1, 10]: 125 µM
- IC90 [1, 10]: 455 µM

SMILES: O=C1C=C(N2CC2)C(N2CC2)=CC1=O [4,5-Aziridinyl-1,2-Benzoquinone, 4,5-aziridinyl-1,2-benzoquinone]
- SURVIVAL (L1210 leukemia; [11]): 12.6 days
- % ILS (L1210 leukemia; [11]): 70%
- SURVIVAL (L1210 leukemia; [2]): 13.4 days
- % ILS (L1210 leukemia; [2]): 81%
- SURVIVAL (L1210 leukemia; [12]): 13.6 days
- % ILS (L1210 leukemia; [12]): 84%
- SURVIVAL (L1210 leukemia; [13]): 13.8 days
- % ILS (L1210 leukemia; [13]): 86%
- SURVIVAL (L1210 leukemia; [14]): 11.8 days
- % ILS (L1210 leukemia; [14]): 59%
- SURVIVAL (L1210 leukemia; [3]): 6.0 days
- % ILS (L1210 leukemia; [3]): toxic
- IC50 [1, 9]: 0.2 µM
- IC90 [1, 9]: 1 µM
- IC50 [1, 10]: 0.4 µM
- IC90 [1, 10]: 1.1 µM

SMILES: CCN(CC)C1=CC(=O)C(=O)C=C1N(CC)CC [4,5-bis-(Diethylamino)-1,2-Benzoquinone, 4,5-bis-(diethylamino)-1,2-benzoquinone]
- SURVIVAL (L1210 leukemia; [2]): 7.8 days
- % ILS (L1210 leukemia; [2]): 5%
- SURVIVAL (L1210 leukemia; [3]): 8.4 days
- % ILS (L1210 leukemia; [3]): 14%
- SURVIVAL (L1210 leukemia; [4]): 8.6 days
- % ILS (L1210 leukemia; [4]): 16%
- SURVIVAL (L1210 leukemia; [5]): 7.8 days
- % ILS (L1210 leukemia; [5]): 5%
- IC90 ([1]; Hypoxia, read-out: IC90): > 500 µM
- IC50 [1, 6]: 400 µM
- IC50 [1, 7]: 500 µM
- IC90 [1, 8]: > 500 µM

SMILES: COC1=CC(=O)C(=O)C=C1OC [4,5-Methoxy-1,2-Benzoquinone, 4,5-Dimethoxy-1,2-benzoquinone, reference compound]
- IC90 ([1]; Hypoxia, read-out: IC90): > 500 µM
- IC50 [1, 6]: > 500 µM
- IC50 [1, 7]: 500 µM
- IC90 [1, 8]: > 500 µM
